In one test the target is T1, CDK9 (Homo sapiens, UniProt P50750).
T1 construct: endogenous in cells; host or cells: MDA-MB-231
The experiment in a line: CDK protein degradation activity (Western blotting), CDK9. Format: cell-based. To be noted: MDA-MB-231 cells, 16 hours, Western blot. In a few lines: (§1)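 MDA-MB-231 cells treated 16 h with compound at 100 nM, 1 μM or 10 μM, with DMSO as control. Lysates run on SDS-PAGE and immunoblotted for CDK2, CDK9 and tubulin; band levels quantified by densitometry.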
(In general: A western blot detects proteins with antibodies after separation by electrophoresis.)

Another test deals with T2, CDK2 (Homo sapiens, UniProt P24941).
T2 construct: endogenous in cells; host or cells: MDA-MB-231
The experiment in a line: CDK protein degradation activity (Western blotting), CDK2. Format: cell-based. Conditions: MDA-MB-231 cells, 16 hours, Western blot. In a few lines:
as §1

T1 sequence (P50750 whole entry): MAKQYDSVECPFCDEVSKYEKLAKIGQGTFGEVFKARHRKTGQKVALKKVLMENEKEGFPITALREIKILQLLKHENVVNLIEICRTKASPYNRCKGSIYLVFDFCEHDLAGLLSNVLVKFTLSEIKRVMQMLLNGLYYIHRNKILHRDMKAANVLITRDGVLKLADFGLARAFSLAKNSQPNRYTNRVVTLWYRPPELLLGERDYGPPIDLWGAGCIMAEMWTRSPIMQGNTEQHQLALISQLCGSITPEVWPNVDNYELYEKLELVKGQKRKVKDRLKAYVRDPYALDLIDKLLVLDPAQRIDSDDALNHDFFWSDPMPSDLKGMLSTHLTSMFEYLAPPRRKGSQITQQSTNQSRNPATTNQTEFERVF

As for `O=C1CC[C@H](N2C(=O)c3ccc(OCC(=O)N4CCC(CN5CCN(c6ccc(Nc7ncnc8c7ncn8C7CC(NC(=O)Cc8ccccc8)C7)cc6)CC5)CC4)cc3C2=O)C(=O)N1` (stereo partly drawn) [Compound 175, N-((1s,3s)-3-(6-((4-(4-((1-(2-((2-(2,6-dioxopiperidin-3-yl)-1,3-dioxoisoindolin-5-yl)oxy)acetyl)piperidin-4-yl)methyl)piperazin-1-yl)phenyl)amino)-9H-purin-9-yl)cyclobutyl)-2-phenylacetamide], on CDK9, the “Enzyme degradation CDK9 (% remaining) @ 0.1 μM” value worked out at 80%, the “Enzyme degradation CDK9 (% remaining) @ 1 μM” value worked out at 30% and the “Enzyme degradation CDK9 (% remaining) @ 10 μM” value amounted to 0%. Besides, at CDK2, the “Enzyme degradation CDK2 (% remaining) @ 0.1 μM” value was 100%, the “Enzyme degradation CDK2 (% remaining) @ 1 μM” value is reported as 80% and the “Enzyme degradation CDK2 (% remaining) @ 10 μM” value is given as 30%.
As for `Cc1cccc(C(=O)N[C@H]2C[C@@H](n3cnc4c(NCc5ccc(OCCCN6CCN(c7ccc8c(c7)C(=O)N(C7CCC(=O)NC7=O)C8=O)CC6)cc5)ncnc43)C2)n1` (stereo partly drawn) [Compound 116, N-((1s,3s)-3-(6-((4-(3-(4-(2-(2,6-dioxopiperidin-3-yl)-1,3-dioxoisoindolin-5-yl)piperazin-1-yl)propoxy)benzyl)amino)-9H-purin-9-yl)cyclobutyl)-6-methylpicolinamide], at CDK9, the “Enzyme degradation CDK9 (% remaining) @ 0.1 μM” value turned out to be 10%, the “Enzyme degradation CDK9 (% remaining) @ 1 μM” value amounted to 0% and the “Enzyme degradation CDK9 (% remaining) @ 10 μM” value is reported as 0%. Further, at CDK2, the “Enzyme degradation CDK2 (% remaining) @ 0.1 μM” value came out at 30%, the “Enzyme degradation CDK2 (% remaining) @ 1 μM” value was 40% and the “Enzyme degradation CDK2 (% remaining) @ 10 μM” value is 50%.
`Cc1cccc(C(=O)N[C@H]2C[C@@H](n3cnc4c(NCc5ccc(OCC6CCN(C(=O)CNc7cccc8c7C(=O)N([C@H]7CCC(=O)NC7=O)C8=O)CC6)cc5)ncnc43)C2)n1` [Compound 109, N-((1s,3s)-3-(6-((4-((1-((2-(2,6-dioxopiperidin-3-yl)-1,3-dioxoisoindolin-4-yl)glycyl)piperidin-4-yl)methoxy)benzyl)amino)-9H-purin-9-yl)cyclobutyl)-6-methylpicolinamide]: at CDK9, the “Enzyme degradation CDK9 (% remaining) @ 0.1 μM” value is listed as 0/0/0%, the “Enzyme degradation CDK9 (% remaining) @ 1 μM” value is given as 0/0/0% and the “Enzyme degradation CDK9 (% remaining) @ 10 μM” value is 0/0/0%. Also, at CDK2, the “Enzyme degradation CDK2 (% remaining) @ 0.1 μM” value is 40%, the “Enzyme degradation CDK2 (% remaining) @ 1 μM” value is 60% and the “Enzyme degradation CDK2 (% remaining) @ 10 μM” value is reported as 70%.
On to `O=C1CC[C@H](N2C(=O)c3ccc(N4CC(C(=O)N5CCC6(CC5)CC(N5CCN(c7ccc(Nc8ncnc9c8ncn9[C@H]8C[C@@H](NC(=O)Cc9ccccc9)C8)cc7)CC5)C6)C4)cc3C2=O)C(=O)N1` [Compound 352, N-((1s,3s)-3-(6-((4-(4-(7-(1-(2-(2,6-dioxopiperidin-3-yl)-1,3-dioxoisoindolin-5-yl)azetidin-3-carbonyl)-7-azaspiro[3.5]nonan-2-yl)piperazin-1-yl)phenyl)amino)-9H-purin-9-yl)cyclobutyl)-2-phenylacetamide], for which, on CDK9, the “Enzyme degradation CDK9 (% remaining) @ 0.1 μM” value is 20/20/20%, the “Enzyme degradation CDK9 (% remaining) @ 1 μM” value is on record as 20/20/20% and the “Enzyme degradation CDK9 (% remaining) @ 10 μM” value is on record as 20/20/20%. Also, at CDK2, the “Enzyme degradation CDK2 (% remaining) @ 0.1 μM” value is reported as 90%, the “Enzyme degradation CDK2 (% remaining) @ 1 μM” value was 70% and the “Enzyme degradation CDK2 (% remaining) @ 10 μM” value was found to be 70%.
With `Cc1cccc(C(=O)N[C@H]2C[C@@H](n3cnc4c(Nc5ccc(N6CCN(C(=O)CNc7cccc8c7C(=O)N([C@H]7CCC(=O)NC7=O)C8=O)CC6)cc5)ncnc43)C2)n1` [Compound 87, N-((1s,3s)-3-(6-((4-(4-((2-(2,6-dioxopiperidin-3-yl)-1,3-dioxoisoindolin-4-yl)glycyl)piperazin-1-yl)phenyl)amino)-9H-purin-9-yl)cyclobutyl)-6-methylpicolinamide], at CDK9, the “Enzyme degradation CDK9 (% remaining) @ 0.1 μM” value amounted to 50%, the “Enzyme degradation CDK9 (% remaining) @ 1 μM” value came to 50% and the “Enzyme degradation CDK9 (% remaining) @ 10 μM” value is reported as 40%. For the same molecule, at CDK2, the “Enzyme degradation CDK2 (% remaining) @ 0.1 μM” value stood at 90%, the “Enzyme degradation CDK2 (% remaining) @ 1 μM” value is on record as 70% and the “Enzyme degradation CDK2 (% remaining) @ 10 μM” value came to 50%.
Take `Cc1cccc(C(=O)NC2CC(n3cnc4c(NCCCN5CCN(CC6CCN(C(=O)COc7ccc8c(c7)C(=O)N([C@@H]7CCC(=O)NC7=O)C8=O)CC6)CC5)ncnc43)C2)n1` (stereo partly drawn) [Compound 144, N-((1r,3r)-3-(6-((3-(4-((1-(2-((2-(2,6-dioxopiperidin-3-yl)-1,3-dioxoisoindolin-5-yl)oxy)acetyl)piperidin-4-yl)methyl)piperazin-1-yl)propyl)amino)-9H-purin-9-yl)cyclobutyl)-6-methylpicolinamide]: on CDK9, the “Enzyme degradation CDK9 (% remaining) @ 0.1 μM” value is 80%, the “Enzyme degradation CDK9 (% remaining) @ 1 μM” value was found to be 10% and the “Enzyme degradation CDK9 (% remaining) @ 10 μM” value is recorded as 0%. In addition, on CDK2, the “Enzyme degradation CDK2 (% remaining) @ 0.1 μM” value is 100%, the “Enzyme degradation CDK2 (% remaining) @ 1 μM” value is recorded as 70% and the “Enzyme degradation CDK2 (% remaining) @ 10 μM” value is 70%.
Regarding `Cc1cccc(C(=O)N[C@H]2C[C@@H](n3cnc4c(NCc5ccc(OCCCN6CCN(C(=O)COc7cccc8c7C(=O)N([C@H]7CCC(=O)NC7=O)C8=O)CC6)cc5)ncnc43)C2)n1` [Compound 113, N-((1s,3s)-3-(6-((4-(3-(4-(2-((2-(2,6-dioxopiperidin-3-yl)-1,3-dioxoisoindolin-4-yl)oxy)acetyl)piperazin-1-yl)propoxy)benzyl)amino)-9H-purin-9-yl)cyclobutyl)-6-methylpicolinamide], on CDK9, the “Enzyme degradation CDK9 (% remaining) @ 0.1 μM” value stood at 100%, the “Enzyme degradation CDK9 (% remaining) @ 1 μM” value was 10% and the “Enzyme degradation CDK9 (% remaining) @ 10 μM” value stood at 0%. Further, at CDK2, the “Enzyme degradation CDK2 (% remaining) @ 0.1 μM” value is recorded as 30/30/30%, the “Enzyme degradation CDK2 (% remaining) @ 1 μM” value is listed as 30/30/30% and the “Enzyme degradation CDK2 (% remaining) @ 10 μM” value is recorded as 30/30/30%.
Turning to `O=C1CC[C@H](N2C(=O)c3cc(F)c(N4CCC(C(=O)N5CCC(CCN6CCN(c7ccc(Nc8ncnc9c8ncn9[C@H]8C[C@@H](NC(=O)Cc9ccccc9)C8)cc7)CC6)CC5)CC4)cc3C2=O)C(=O)N1` [Compound 457, N-((1s,3s)-3-(6-((4-(4-(2-(1-(1-(2-(2,6-dioxopiperidin-3-yl)-6-fluoro-1,3-dioxoisoindolin-5-yl)piperidin-4-carbonyl)piperidin-4-yl)ethyl)piperazin-1-yl)phenyl)amino)-9H-purin-9-yl)cyclobutyl)-2-phenylacetamide], at CDK9, the “Enzyme degradation CDK9 (% remaining) @ 0.1 μM” value was 20%, the “Enzyme degradation CDK9 (% remaining) @ 1 μM” value was 0% and the “Enzyme degradation CDK9 (% remaining) @ 10 μM” value is reported as 0%. Also, at CDK2, the “Enzyme degradation CDK2 (% remaining) @ 0.1 μM” value is reported as 80%, the “Enzyme degradation CDK2 (% remaining) @ 1 μM” value amounted to 60% and the “Enzyme degradation CDK2 (% remaining) @ 10 μM” value turned out to be 60%.

For the origin of these results see patent publication US20260125382A1, “COMPOUNDS FOR INHIBITING OR DEGRADING CDK2 AND/OR CDK9 AND MEDICINAL USE THEREOF” (KOREA RESEARCH INSTITUTE OF CHEMICAL TECHNOLOGY, priority 2022, published 2026).
